Reference: US11207283B2 (priority 2016, dated 2021)
pKi: −log10 of the molar value.

Experiments:
TgOAT = conditions: for KI (inactivation): read-out: KI (inhibition constant of inactivation), 10 mM L-ornithine; for KI (inactivation) / kinact/KI / kinact (rate constant of enzyme inactivation): time-dependent inactivators; for KI (inactivation) / kinact (rate constant of enzyme inactivation): pH 8.0, 37° C.; for pKi: read-out: Ki (reversible inhibition), reversible inhibitors, calculated from the IC50 value; for selectivity of inactivation, TgOAT versus GABA-AT and human OAT (in words): compared with literature data on GABA-AT and human OAT; for activity in inactivating TgOAT (in words): summary of Table 1
[1] = test system: glutamate decarboxylase (GAD); conditions: cited from earlier work
GABA-AT = conditions: cited from earlier work
[2] = test system: Type I T. gondii tachyzoites; assay: Effect of TgOAT inactivators on T. gondii in vitro (YFP RH tachyzoites in HFF); assay type: cell-based, Toxoplasma gondii; conditions: HFF host cells, 72 hours, tested into the millimolar range
Description: HFFs were grown to confluence in black, flat-bottomed 96-well microplates. […] Control triplicates with only fibroblasts and with pyrimethamine and sulfadiazine (the current standard of treatment of T. gondii infection) were also conducted. The cells and parasites were then incubated at 37° C. for 72 hours. Fluorescence was measured using a Bio-Tek Synergy™ H4 Hybrid Multi-Mode Microplate Reader.

[3] = test system: P. falciparum parasite, D6 (Sierra Leone); assay: Malaria SYBR Green I-based fluorescence (MSF) assay; assay type: cell-based, Plasmodium falciparum; conditions: concentrations up to 10000 ng/mL, data not shown
human OAT = target: T1, human OAT (Homo sapiens, UniProt P04181); conditions: cited from earlier work
T1 sequence (P04181 36-439 limits assumed): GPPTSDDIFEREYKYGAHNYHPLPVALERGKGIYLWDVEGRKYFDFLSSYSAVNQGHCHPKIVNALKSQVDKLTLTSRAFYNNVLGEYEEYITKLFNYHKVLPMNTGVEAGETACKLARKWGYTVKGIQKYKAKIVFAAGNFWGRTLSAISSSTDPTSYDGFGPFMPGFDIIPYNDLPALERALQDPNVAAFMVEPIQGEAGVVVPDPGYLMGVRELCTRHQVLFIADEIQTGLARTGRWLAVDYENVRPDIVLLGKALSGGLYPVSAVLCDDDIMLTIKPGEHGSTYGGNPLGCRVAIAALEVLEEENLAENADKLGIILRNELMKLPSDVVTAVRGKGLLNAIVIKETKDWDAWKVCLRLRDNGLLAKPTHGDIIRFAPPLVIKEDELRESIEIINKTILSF

[4] = test system: aspartate aminotransferase (AspAT); conditions: cited from earlier work

| Compound | KI (inactivation) (TgOAT) [µM] | kinact/KI (TgOAT) [M⁻¹ s⁻¹] | kinact (rate constant of enzyme inactivation) (TgOAT) [min⁻¹] | activity against GABA-AT (in words) (GABA-AT) | other results |
| --- | --- | --- | --- | --- | --- |
| NC1CC(C(=O)O)CC1(F)F (stereo not shown) [Compound 8] | 130 | 1000 | 7.8 | – | off-target activity at GAD (in words) [1]: significant |
| C[C@@H](F)[C@@H](N)CCC(=O)O [Compound 12] | – | – | – | – | pKi (TgOAT): 2.54 |
| NCc1c(CC(=O)O)cccc1C(F)(F)F [Compound 11] | 15 | 6000 | 5.4 | weak reversible inhibitor | inhibition of tachyzoite replication in vitro [2]: no effects on active T. gondii infection; antimalarial activity in live-cell parasite assay [3]: no antimalarial activity; selectivity of inactivation, TgOAT versus GABA-AT and human OAT (in words) (TgOAT): high specific inactivation towards TgOAT but not GABA-AT or human OAT; activity in inactivating TgOAT (in words) (TgOAT): high activity in inactivating TgOAT; activity against human OAT (in words) (human OAT): weak inactivator |
| NC1CC(C(=O)O)CC1=CC(F)(F)F (stereo not shown) [Compound 3] | 30 | 83.3 | 0.15 | – | – |
| NCc1cocc1C(=O)O [Compound 13] | – | – | – | – | pKi (TgOAT): < 2.30 |
| NC1CC(C(=O)O)C=C1C(F)(F)C(F)(F)F (stereo not shown) [Compound 6] | 21 | 167 | 0.21 | – | – |
| NC1CC(C(=O)O)CC1=C(C(F)(F)F)C(F)(F)F (stereo not shown) [Compound 2] | 4.8 | 15300 | 4.4 | weak reversible inhibitor | inhibition of tachyzoite replication in vitro [2]: no effects on active T. gondii infection; antimalarial activity in live-cell parasite assay [3]: no antimalarial activity; activity in inactivating TgOAT (in words) (TgOAT): high activity in inactivating TgOAT; activity against human OAT (in words) (human OAT): highly potent inactivator |
| gabaculine [Compound 23, reference compound] | 0.82 | – | – | equally potent irreversible inhibitor | – |
| NCc1cscc1C(=O)O [Compound 14] | – | – | – | – | pKi (TgOAT): 2.38 |
| NCc1ccc(C(=O)O)s1 [Compound 16] | – | – | – | – | pKi (TgOAT): < 2.30 |
| NCc1c[nH]c(C(=O)O)c1 [Compound 17] | – | – | – | – | pKi (TgOAT): < 2.30 |
| NC1CC(C(=O)O)CC1F (stereo not shown) [Compound 7] | 2100 | 86.7 | 11 | – | – |
| NC1C(F)CC(C(=O)O)C1Br (stereo not shown) [Compound 10] | 110 | 583 | 3.9 | – | – |
| NC1CC(C(=O)O)CC1Br (stereo not shown) [Compound 9] | 2600 | 31.7 | 5.0 | – | – |
| C=CC(N)CCC(=O)O (stereo not shown) [Compound 22, 4-am inohex-5-enoic acid, reference compound] | 440 | 383 | 9.9 | – | off-target activity at AspAT (in words) [4]: weakly affects; off-target activity at GAD (in words) [1]: no activity |
| N[C@H]1C[C@@H](C(=O)O)CC1=C(F)F [Compound 1] | 4.4 | 41670 | 11 | extremely potent inactivator | inhibition of tachyzoite replication in vitro [2]: no effects on active T. gondii infection; antimalarial activity in live-cell parasite assay [3]: no antimalarial activity; activity in inactivating TgOAT (in words) (TgOAT): high activity in inactivating TgOAT; activity against human OAT (in words) (human OAT): potent inactivator |
| N[C@H](CF)CCC(=O)O [Compound 18, (S)-4-amino-5-fluoropentanoic acid] | 4.6 | 36670 | 10 | moderate inactivator | inhibition of tachyzoite replication in vitro [2]: no effects on active T. gondii infection; antimalarial activity in live-cell parasite assay [3]: no antimalarial activity; selectivity of inactivation, TgOAT versus GABA-AT and human OAT (in words) (TgOAT): high specific inactivation towards TgOAT but not GABA-AT or human OAT; activity in inactivating TgOAT (in words) (TgOAT): high activity in inactivating TgOAT; activity against human OAT (in words) (human OAT): moderate inactivator |
| NCc1csc(C(=O)O)c1 [Compound 15] | – | – | – | – | pKi (TgOAT): 2.31 |
| NC1CC(C(=O)O)CC1=CC(F)(F)F (stereo not shown) [Compound 4] | 21 | 183 | 0.23 | – | – |
| NC1CC(C(=O)O)CC1=C(Cl)Cl (stereo not shown) [Compound 5] | 15 | 4830 | 4.4 | very weak reversible inhibitor | inhibition of tachyzoite replication in vitro [2]: no effects on active T. gondii infection; antimalarial activity in live-cell parasite assay [3]: no antimalarial activity; selectivity of inactivation, TgOAT versus GABA-AT and human OAT (in words) (TgOAT): high specific inactivation towards TgOAT but not GABA-AT or human OAT; activity in inactivating TgOAT (in words) (TgOAT): high activity in inactivating TgOAT; activity against human OAT (in words) (human OAT): very weak reversible inhibitor |
| NC(CF)CCC(=O)O (stereo not shown) [5-Fluoro-4-aminopentanoic acid, reference compound] | – | – | – | very efficient inactivator | – |
